pIC50: −log10 of the molar value.
Molecular target: TBK1 (Homo sapiens (Human), UniProt Q9UHD2)
Assay: TBK1 low ATP kinase assay (in vitro assay 1)
Type: biochemical
Conditions: in vitro assay 1, read-out: TBK1 low ATP kinase assay IC50

Chain of TBK1 (Q9UHD2 whole entry): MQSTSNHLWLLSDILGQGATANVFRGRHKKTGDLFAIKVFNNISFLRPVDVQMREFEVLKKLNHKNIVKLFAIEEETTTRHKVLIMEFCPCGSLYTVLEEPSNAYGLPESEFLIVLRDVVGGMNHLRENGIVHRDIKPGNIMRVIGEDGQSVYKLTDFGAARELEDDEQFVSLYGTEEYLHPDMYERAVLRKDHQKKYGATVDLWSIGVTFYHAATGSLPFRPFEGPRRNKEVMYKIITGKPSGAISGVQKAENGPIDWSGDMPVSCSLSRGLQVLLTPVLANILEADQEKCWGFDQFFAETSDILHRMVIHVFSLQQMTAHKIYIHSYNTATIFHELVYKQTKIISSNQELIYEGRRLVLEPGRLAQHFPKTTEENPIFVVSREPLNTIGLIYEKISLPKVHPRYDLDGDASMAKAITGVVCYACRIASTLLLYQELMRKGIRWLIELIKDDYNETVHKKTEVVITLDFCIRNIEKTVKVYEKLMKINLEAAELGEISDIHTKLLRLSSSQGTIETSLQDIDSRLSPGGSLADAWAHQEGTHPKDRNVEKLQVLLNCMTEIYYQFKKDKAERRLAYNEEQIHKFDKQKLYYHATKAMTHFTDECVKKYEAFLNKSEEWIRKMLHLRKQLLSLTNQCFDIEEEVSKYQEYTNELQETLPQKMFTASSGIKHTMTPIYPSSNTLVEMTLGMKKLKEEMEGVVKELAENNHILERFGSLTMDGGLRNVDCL

Structure (SMILES) | pIC50
COc1c(-c2ccc3nc(Nc4cc(C(C)N5CCN(C(=O)CC(F)(F)F)CC5)ccn4)[nH]c3c2)ncnc1N(C)C (single isomer, unassigned) [Example 107.02.03, 1-(4-{(1R or 1S)-1-[2-({6-[6-(dimethylamino)-5-methoxypyrimidin-4-yl]-1H-benzimidazol-2-yl}amino)pyridin-4-yl]ethyl}piperazin-1-yl)-3,3,3-trifluoropropan-1-one] | 8.27
Cc1nccc(-c2ccc3nc(Nc4cc(C(C)N5CCN(C(=O)C6CCC6)CC5)ccn4)[nH]c3c2)n1 (single isomer, unassigned) [Example 24.05.02.B, cyclobutyl{4-[(1S or 1R)-1-(2-{[6-(2-methylpyrimidin-4-yl)-1H-benzimidazol-2-yl]amino}pyridin-4-yl)ethyl]piperazin-1-yl}methanone] | 7.26
O=C(C1CCC1)N1CCN(Cc2ccnc(Nc3nc4ccc(-c5cnn(CC(F)(F)F)c5)cc4[nH]3)c2)CC1 [Example 58.01.01, cyclobutyl(4-{[2-({6-[1-(2,2,2-trifluoroethyl)-1H-pyrazol-4-yl]-1H-benzimidazol-2-yl}amino)pyridin-4-yl]methyl}piperazin-1-yl)methanone] | 7.89
CC(c1ccnc(Nc2nc3ccc(-c4cnn(CC(F)F)c4)cc3[nH]2)c1)N1CCN(C(=O)C2CC2)CC1 (single isomer, unassigned) [Example 87.02, cyclopropyl(4-{(1R or 1S)-1-[2-({6-[1-(2,2-difluoroethyl)-1H-pyrazol-4-yl]-1H-benzimidazol-2-yl}amino)pyridin-4-yl]ethyl}piperazin-1-yl)methanone] | 8.70
CC(c1ccnc(Nc2nc3ccc(-c4cnn(CC5CC5(F)F)c4)cc3[nH]2)c1)N1CCN(C(=O)CC(F)(F)F)CC1 (single isomer, unassigned) [Example 55.02.01, 1-{4-[(1R or 1S)-1-(2-{[6-(1-{[(1R or IS)-2,2-difluorocyclopropyl]methyl}-1H-pyrazol-4-yl)-1H-benzimidazol-2-yl]amino}pyridin-4-yl)ethyl]piperazin-1-yl}-3,3,3-trifluoropropan-1-one] | 9.14
CC(c1ccnc(Nc2nc3ccc(-c4cc(N5CCCC5)ncn4)cc3[nH]2)c1)N1CCN(C(=O)C2(C)CC2(F)F)CC1 (single isomer, unassigned) [Example 117.06, [(1RS)-2,2-difluoro-1-methylcyclopropyl](4-{(1R or S)-1-[2-({6-[6-(pyrrolidin-1-yl)pyrimidin-4-yl]-1H-benzimidazol-2-yl}amino)pyridin-4-yl]ethyl}piperazin-1-yl)methanone] | 9.07
COc1cncnc1-c1ccc2nc(Nc3cc(CN4CCN(S(=O)(=O)C5CC5)CC4)ccn3)[nH]c2c1 [Example 35.01.12, N-(4-{[4-(cyclopropylsulfonyl)piperazin-1-yl]methyl}pyridin-2-yl)-6-(5-methoxypyrimidin-4-yl)-1H-benzimidazol-2-amine] | 7.49
Cc1ncc(C)c(-c2ccc3nc(Nc4cc(CN5CCN(C(=O)CC(F)(F)F)CC5)ccn4)[nH]c3c2)n1 [Example 33.02, 1-{4-[(2-{[6-(2,5-dimethylpyrimidin-4-yl)-1H-benzimidazol-2-yl]amino}pyridin-4-yl)methyl]piperazin-1-yl}-3,3,3-trifluoropropan-1-one] | 5.80
CN(C)c1ncnc(-c2ccc3nc(Nc4cc(CN5CCN(C(=O)OC(C)(C)C)CC5)ccn4)[nH]c3c2)c1Cl [Example 179.01, tert-butyl 4-{[2-({6-[5-chloro-6-(dimethylamino)pyrimidin-4-yl]-1H-benzimidazol-2-yl}amino)pyridin-4-yl]methyl}piperazine-1-carboxylate] | 5.52
CC(c1ccnc(Nc2nc3ccc(-c4cnn(CC5CC5)c4)cc3[nH]2)c1)N1CCN(C(=O)C2CC2)CC1 (single isomer, unassigned) [Example 39.02.03, cyclopropyl(4-{(1R or 1S)-1-[2-({6-[1-(cyclopropylmethyl)-1H-pyrazol-4-yl]-1H-benzimidazol-2-yl}amino)pyridin-4-yl]ethyl}piperazin-1-yl)methanone] | 8.78
CC(c1ccnc(Nc2nc3ccc(-c4cc(N5CCOCC5)ncn4)cc3[nH]2)c1)N1CCN(C(=O)C2(C(F)(F)F)CC2)CC1 (single isomer, unassigned) [Example 118.04, (4-{(1R or 1S)-1-[2-({6-[6-(morpholin-4-yl)pyrimidin-4-yl]-1H-benzimidazol-2-yl}amino)pyridin-4-yl]ethyl}piperazin-1-yl)[1-(trifluoromethyl)cyclopropyl]methanone] | 8.59
Cc1noc(-c2ccc3nc(Nc4cc(CN5CCN(c6ncncn6)CC5)ccn4)[nH]c3c2)n1 [Example 101.27, 6-(3-methyl-1,2,4-oxadiazol-5-yl)-N-(4-{[4-(1,3,5-triazin-2-yl)piperazin-1-yl]methyl}pyridin-2-yl)-1H-benzimidazol-2-amine] | 6.46
Cc1cc(-c2ccc3nc(Nc4cc(CN5CCN(C(=O)OC(C)(C)C)CC5)ccn4)[nH]c3c2)nc(N(C)C)n1 [Example 178.01, tert-butyl 4-{[2-({6-[2-(dimethylamino)-6-methylpyrimidin-4-yl]-1H-benzimidazol-2-yl}amino)pyridin-4-yl]methyl}piperazine-1-carboxylate] | 6.05
Cc1noc(-c2ccc3nc(Nc4cc(CN5CCN(C(N)=O)CC5)ccn4)[nH]c3c2)n1 [Example 101.20, 4-[(2-{[6-(3-methyl-1,2,4-oxadiazol-5-yl)-1H-benzimidazol-2-yl]amino}pyridin-4-yl)methyl]piperazine-1-carboxamide] | 6.25
COc1cncnc1-c1ccc2nc(Nc3cc(C(C)N4CCN(C(=O)CC5CC5)CC4)ccn3)[nH]c2c1 (racemic) [Example 35.02.02, (rac)-2-cyclopropyl-1-{4-[1-(2-{[6-(5-methoxypyrimidin-4-yl)-1H-benzimidazol-2-yl]amino}pyridin-4-yl)ethyl]piperazin-1-yl}ethanone] | 7.94
O=C(CC(F)(F)F)N1CCN(Cc2ccnc(Nc3nc4ccc(-c5cncnc5)cc4[nH]3)c2)CC1 [Example 45.01.01, 3,3,3-trifluoro-1-{4-[(2-{[6-(pyrimidin-5-yl)-1H-benzimidazol-2-yl]amino}pyridin-4-yl)methyl]piperazin-1-yl}propan-1-one] | 6.49
CC(c1ccnc(Nc2nc3ccc(-c4cnn(CC5CC5)c4)c(Cl)c3[nH]2)c1)N1CCN(C(=O)OC(C)(C)C)CC1 (single isomer, unassigned) [Example 122.01, tert-butyl 4-{(1R or 1S)-1-[2-({7-chloro-6-[1-(cyclopropylmethyl)-1H-pyrazol-4-yl]-1H-benzimidazol-2-yl}amino)pyridin-4-yl]ethyl}piperazine-1-carboxylate] | 8.03
CCOc1nccc(-c2ccc3nc(Nc4cc(CN5CCN(C(=O)C6CCC6)CC5)ccn4)[nH]c3c2)n1 [Example 26.01.04, cyclobutyl{4-[(2-{[6-(2-ethoxypyrimidin-4-yl)-1H-benzimidazol-2-yl]amino}pyridin-4-yl)methyl]piperazin-1-yl}methanone] | 7.94
CC(C)Oc1cnccc1-c1ccc2nc(Nc3cc(CN4CCN(C(=O)CC5CC5)CC4)ccn3)[nH]c2c1 [Example 06.03, 2-cyclopropyl-1-(4-{[2-({6-[3-(propan-2-yloxy)pyridin-4-yl]-1H-benzimidazol-2-yl}amino)pyridin-4-yl]methyl}piperazin-1-yl)ethanone] | 8.08
O=C(C1CC1)N1CCN(Cc2ccnc(Nc3nc4ccc(-c5cnc(C6CC6)nc5)cc4[nH]3)c2)CC1 [Example 45.04.01, cyclopropyl{4-[(2-{[6-(2-cyclopropylpyrimidin-5-yl)-1H-benzimidazol-2-yl]amino}pyridin-4-yl)methyl]piperazin-1-yl}methanone] | 5.65
COCc1cc(-c2ccc3nc(Nc4cc(CN5CCN(C(=O)CC(F)(F)F)CC5)ccn4)[nH]c3c2)ncn1 [Example 79.01, 3,3,3-trifluoro-1-(4-{[2-({6-[6-(methoxymethyl)pyrimidin-4-yl]-1H-benzimidazol-2-yl}amino)pyridin-4-yl]methyl}piperazin-1-yl)propan-1-one] | 8.08
CC(C)(C)OC(=O)N1CCN(Cc2ccnc(Nc3nc4ccc(-c5ccnc(N)c5)cc4[nH]3)c2)CC1 [Example 138.01, tert-butyl 4-[(2-{[6-(2-aminopyridin-4-yl)-1H-benzimidazol-2-yl]amino}pyridin-4-yl)methyl]piperazine-1-carboxylate] | 8.24
Cc1nnc(-c2ccc3nc(Nc4cc(CN5CCN(C(=O)C6CC6)CC5)ccn4)[nH]c3c2)o1 [Example 66.01.02, cyclopropyl{4-[(2-{[6-(5-methyl-1,3,4-oxadiazol-2-yl)-1H-benzimidazol-2-yl]amino}pyridin-4-yl)methyl]piperazin-1-yl}methanone] | 7.48
CC(c1ccnc(Nc2nc3ccc(-c4cc(N5CCCC5)ncn4)cc3[nH]2)c1)N1CCN(C(=O)C2CC2)CC1 (single isomer, unassigned) [Example 117.02, cyclopropyl(4-{(1R or 1S)-1-[2-({6-[6-(pyrrolidin-1-yl)pyrimidin-4-yl]-1H-benzimidazol-2-yl}amino)pyridin-4-yl]ethyl}piperazin-1-yl)methanone] | 9.48
